Read-outs that look alike come from different tables or passages of the source.
Tests used:
Tubulin = Tubulin assembly induction; type: biochemical
SNB-75 = experiment: Cytotoxicity (GI50) assay, SNB-75; type: cell-based, human; conditions: SNB-75; human glioblastoma cell line; read-out: Cancer cell lines GI50, SNB-75
MDA-MB-435 = experiment: Cytotoxicity (GI50) assay, MDA-MB-435; type: cell-based, human; conditions: MDA-MB-435; human melanoma cell line; read-out: Cancer cell lines GI50, MDA-MB-435
NCI/ADR-RES = experiment: Cytotoxicity (GI50) assay, NCI/ADR-RES; type: cell-based, human; conditions: Homo sapiens, NCI/ADR-RES, read-out: Cancer cell lines GI50, NCI/ADR-RES
OVCAR-8 = experiment: Cytotoxicity (GI50) assay, OVCAR-8; type: cell-based, human; conditions: OVCAR-8; human ovarian cancer cell line; read-out: Cancer cell lines GI50, OVCAR-8
MES SA = experiment: Cytotoxicity assay (CellTiter-Glo), MES SA; type: cell-based, human; conditions: MES-SA; human uterine sarcoma cell line; 72 hours, CellTiter-Glo; read-out: Cancer cell lines IC50, MES SA
MCF-7 = experiment: Cytotoxicity (GI50) assay, MCF-7; type: cell-based, human; conditions: MCF7; human breast cancer cell line; concentration required to decrease cell growth by 50%; read-out: Cancer cell lines GI50, MCF-7
MES SA DX = experiment: Cytotoxicity assay (CellTiter-Glo), MES SA DX; type: cell-based, human; conditions: Homo sapiens, read-out: Cancer cell lines IC50, MES SA DX
[1] = highly drug resistant human ovarian cancer cell line
[2] = MES SA cell line with marked multidrug resistance, 72 hours, CellTiter-Glo

Compound	EC50 (Tubulin) [nM]	GI50 (SNB-75) [nM]	GI50 (MDA-MB-435) [nM]	GI50 (NCI/ADR-RES) [nM]	GI50 (OVCAR-8) [nM]	IC50 (MES SA) [nM]	GI50 (MCF-7) [nM]	IC50 (MES SA DX; MES-SA, 72 h) [nM]	EC50 (Tubulin; […]) [nM]	GI50 (NCI/ADR-RES; [1]) [nM]	IC50 (MES SA DX; [2]) [nM]
CC(=Cc1csc(C)n1)C1CC2OC2CCCC(C)C(O)C(C)C(=O)C(C)(C)C(O)CC(=O)O1 (stereo not shown) [compound 1, epothilone A]	22000	26	16	78	20	1.46	17	5.12			
CC(=Cc1csc(C)n1)C1CC=CCCCC(C)C(O)C(C)C(=O)C(C)(C)C(O)CC(=O)O1 (stereo not shown) [compound 3, epothilone C, reference compound]	18000				110	31.5	70				
C/C(=C\c1csc(C)n1)[C@@H]1C[C@@H]2O[C@]2(C)CCC[C@H](C)[C@H](O)[C@@H](C)C(=O)C(C)(C)[C@@H](O)CC(=O)N1 [compound 5, ixabepilone, reference compound]									4500	1400	
C/C(=C\c1csc(C)n1)[C@@H]1C[C@@H]2N[C@]2(C)CCC[C@H](C)[C@H](O)[C@@H](C)C(=O)C(C)(C)[C@@H](O)CC(=O)O1 [compound 10, (1S,3S,7S,10R,11S,12S,16R)-7,11-Dihydroxy-8,8,10,12,16-pentamethyl-3-[(1E)-1-(2-methyl-1,3-thiazol-4-yl)prop-1-en-2-yl]-4-oxa-17-azabicyclo[14.1.0]heptadecane-5,9-dione]					1.5	0.04	2		19000	35	0.51
C/C(=C\c1csc(C)n1)[C@@H]1C[C@@H]2N(CCO)[C@]2(C)CCC[C@H](C)[C@H](O)[C@@H](C)C(=O)C(C)(C)[C@@H](O)CC(=O)O1 (stereo partly drawn) [compound 11, (1S,3S,7S,10R,11S,12S,16R)-7,11-Dihydroxy-17-(2-hydroxyethyl)-8,8,10,12,16-pentamethyl-3-[(1E)-1-(2-methyl-1,3-thiazol-4-yl)prop-1-en-2-yl]-4-oxa-17-azabicyclo[14.1.0]heptadecane-5,9-dione]					4.5	0.94	3		18000	55	13.7
CSc1nc(/C=C(\C)[C@@H]2C[C@@H]3N(CCO)[C@]3(C)CCC[C@H](C)[C@H](O)[C@@H](C)C(=O)C(C)(C)[C@@H](O)CC(=O)O2)cs1 (stereo partly drawn) [compound 12, (1S,3S,7S,10R,11S,12S,16R)-7,11-Dihydroxy-17-(2-hydroxyethyl)-8,8,10,12,16-pentamethyl-3-{(1E)-1-[2-(methylsulfanyl)-1,3-thiazol-4-yl]prop-1-en-2-yl}-4-oxa-17-azabicyclo[14.1.0]-heptadecane-5,9-dione]		60	42		75	0.13	28		14000	55	0.66
C/C(=C\c1csc(CN)n1)[C@@H]1C[C@@H]2N(CCO)[C@]2(C)CCC[C@H](C)[C@H](O)[C@@H](C)C(=O)C(C)(C)[C@@H](O)CC(=O)O1 (stereo partly drawn) [compound 13, (1S,3S,7S,10R,11S,12S,16R)-3-{(1E)-1-[2-(Aminomethyl)-1,3-thiazol-4-yl]prop-1-en-2-yl}-7,11-dihydroxy-17-(2-hydroxyethyl)-8,8,10,12,16-pentamethyl-4-oxa-17-azabicyclo[14.1.0]heptadecane-5,9-dione]		130	20		93	0.078	65		> 60000	2800	0.85
CSc1nc(/C=C(\C)[C@@H]2C[C@@H]3N[C@]3(C)CCC[C@H](C)[C@H](O)[C@@H](C)C(=O)C(C)(C)[C@@H](O)CC(=O)O2)cs1 [compound 14, (1S,3S,7S,10R,11S,12S,16R)-7,11-Dihydroxy-8,8,10,12,16-pentamethyl-3-{(1E)-1-[2-(methyl-sulfanyl)-1,3-thiazol-4-yl]prop-1-en-2-yl}-4-oxa-17-azabicyclo[14.1.0]heptadecane-5,9-dione]		11	4.5		16	0.28	4		5000		5.66
C/C(=C\c1csc(N)n1)[C@@H]1C[C@@H]2N(CCO)[C@]2(C)CCC[C@H](C)[C@H](O)[C@@H](C)C(=O)C(C)(C)[C@@H](O)CC(=O)O1 (stereo partly drawn) [compound 15, (1S,3S,7S,10R,11S,12S,16R)-3-[(1E)-1-(2-Amino-1,3-thiazol-4-yl)prop-1-en-2-yl]-7,11-dihydroxy-17-(2-hydroxyethyl)-8,8,10,12,16-pentamethyl-4-oxa-17-azabicyclo[14.1.0]heptadecane-5,9-dione]		280	220		290	36.4	330		13000	3800	> 1000
C/C(=C\c1csc(CCN)n1)[C@@H]1C[C@@H]2N(CCO)[C@]2(C)CCC[C@H](C)[C@H](O)[C@@H](C)C(=O)C(C)(C)[C@@H](O)CC(=O)O1 (stereo partly drawn) [compound 20, (1S,3S,7S,10R,11S,12S,16R)-3-{(1E)-1-[2-(2-Aminoethyl)-1,3-thiazol-4-yl]prop-1-en-2-yl}-7,11-dihydroxy-17-(2-hydroxyethyl)-8,8,10,12,16-pentamethyl-4-oxa-17-azabicyclo[14.1.0]heptadecane-5,9-dione]		50	3.8		8.6	16.1	15		9100	45	> 2500
C/C(=C\c1ccccn1)[C@@H]1C[C@@H]2N(CCO)[C@]2(C)CCC[C@H](C)[C@H](O)[C@@H](C)C(=O)C(C)(C)[C@@H](O)CC(=O)O1 (stereo partly drawn) [compound 21, (1S,3S,7S,10R,11S,12S,16R)-7,11-Dihydroxy-17-(2-hydroxyethyl)-8,8,10,12,16-pentamethyl-3-[(1E)-1-(pyridin-2-yl)prop-1-en-2-yl]-4-oxa-17-azabicyclo[14.1.0]heptadecane-5,9-dione]		98	30		170	0.685	250		> 60000	4000	764
CSc1cc(/C=C(\C)[C@@H]2C[C@@H]3N(CCO)[C@]3(C)CCC[C@H](C)[C@H](O)[C@@H](C)C(=O)C(C)(C)[C@@H](O)CC(=O)O2)nn1C (stereo partly drawn) [compound 23, (1S,3S,7S,10R,11S,12S,16R)-7,11-Dihydroxy-17-(2-hydroxyethyl)-8,8,10,12,16-pentamethyl-3-{(1E)-1-[1-methyl-5-(methylsulfanyl)-1H-pyrazol-3-yl]prop-1-en-2-yl}-4-oxa-17-azabicyclo[14.1.0]heptadecane-5,9-dione]		10	12		10	0.22	78		4600		37.8
C/C(=C\c1nc2ccccc2s1)[C@@H]1C[C@@H]2N(CCO)[C@]2(C)CCC[C@H](C)[C@H](O)[C@@H](C)C(=O)C(C)(C)[C@@H](O)CC(=O)O1 (stereo partly drawn) [compound 24, (1S,3S,7S,10R,11S,12S,16R)-3-[(1E)-1-(1,3-Benzothiazol-2-yl)prop-1-en-2-yl]-7,11-dihydroxy-17-(2-hydroxyethyl)-8,8,10,12,16-pentamethyl-4-oxa-17-azabicyclo[14.1.0]heptadecane-5,9-dione]		12	3.5		23	0.18	11		7900	630	1.32

— patent US20210238187A1, “AZIRIDINE CONTAINING EPOTHILONE ANALOGS, METHODS OF SYNTHESIS, METHODS OF TREATMENT, AND DRUG CONJUGATES” (WILLIAM MARSH RICE UNIVERSITY, priority 2017, published 2021)
